pIC50: −log10 of the molar value.
Molecular target: T1, human fatty acid synthase FASN (Homo sapiens, UniProt P49327)
T1 construct: human recombinant full-length fatty acid synthase; made in house; host or cells: SF9 cells
Assay: Biochemical activity testing of human fatty acid synthase FASN (NADPH fluorescence intensity enzyme assay)
Settings: human recombinant full-length FASN, inhibition
Source text: • GST=Glutathione-S-transferase • FRET=Fluorescence resonance energy transfer • HTRF®=(homogenous time resolved fluorescence) • HEPES=4-(2-hydroxyethyl)-1-piperazine ethanesulfonic acid buffer • DTT=Dithiothreitol • BSA=bovine serum albumin • CHAPS=detergent; • CHAPS=3-[(3-cholamidopropyl)dimethylammonio]-1-propanesulfonate Biochemical Activity Testing of Human Fatty Acid Synthase FASN
Fatty acid synthase FASN is a multifunctional enzyme with seven catalytic activities thereby synthesising long chain fatty acids especially palmitoyl-CoA in the presence of co-factor NADPH starting from the substrates acetyl-CoA and malonyl-CoA. The reductive synthesis is realized by the oxidation of NADPH to NADP. Since NADPH has a high fluorescence intensity quantum yield compared to NADP with excitation at 340 nm and emission at 460 nm, the reaction can be monitored via the decrease in fluorescence intensity. The biochemical FASN activity testing was performed as 384 well two-time-point kinetic fluorescence intensity assay format in Greiner low volume medium binding 384-well black microtiter plates in a total assay volume of 8 μl and was used for high throughput screen. In each well 3 μl 40 nM human recombinant full-length fatty acid synthase (produced in-house in SF9 cells) were dispensed in the following assay buffer: 50 mM potassium phosphate buffer pH 7.0, 0.005% (w/v) BSA, 2 mM Glutathione, 0.02% Tween-20. Then 2 μl of 200 μM NADPH in assay buffer were added, followed by the addition of the test compounds in 10 dilution concentrations starting with 30 μM (final concentration) to get a final DMSO content of 1% (v/v). The mixture was incubated for at least 15 min at room temperature. After the pre-incubation the enzymatic reaction was started by the addition of 2 μl substrate solution (80 μM acetyl-CoA, 240 μM malonyl-CoA). A first fluorescence intensity measurement (time point one) was performed with an Envision multimode reader (Perkin Elmer LAS Germany GmbH) at excitation wavelength 340 nm (lamp mode) and emission wavelength 460 nm. The reaction was incubated for 30 minutes at room temperature. After this the fluorescence intensity was measured again in the Envision using the same parameters as described above (second time point measurement). The data were analysed by subtracting the first time point measurement value from the second time point measurement value (after the enzymatic reaction). The differences of the emission signals were determined. These reflect directly the conversion rate of NADPH. The full value used was the inhibitor-free reaction. A pharmacological zero value was used like GSK837149A (Sigma-Aldrich) in a final concentration of 5-10 μM. The inhibitory values (IC50) were determined using either the program Symyx Assay Explorer® or Condosseo® from GeneData.

T1 sequence (P49327 whole entry): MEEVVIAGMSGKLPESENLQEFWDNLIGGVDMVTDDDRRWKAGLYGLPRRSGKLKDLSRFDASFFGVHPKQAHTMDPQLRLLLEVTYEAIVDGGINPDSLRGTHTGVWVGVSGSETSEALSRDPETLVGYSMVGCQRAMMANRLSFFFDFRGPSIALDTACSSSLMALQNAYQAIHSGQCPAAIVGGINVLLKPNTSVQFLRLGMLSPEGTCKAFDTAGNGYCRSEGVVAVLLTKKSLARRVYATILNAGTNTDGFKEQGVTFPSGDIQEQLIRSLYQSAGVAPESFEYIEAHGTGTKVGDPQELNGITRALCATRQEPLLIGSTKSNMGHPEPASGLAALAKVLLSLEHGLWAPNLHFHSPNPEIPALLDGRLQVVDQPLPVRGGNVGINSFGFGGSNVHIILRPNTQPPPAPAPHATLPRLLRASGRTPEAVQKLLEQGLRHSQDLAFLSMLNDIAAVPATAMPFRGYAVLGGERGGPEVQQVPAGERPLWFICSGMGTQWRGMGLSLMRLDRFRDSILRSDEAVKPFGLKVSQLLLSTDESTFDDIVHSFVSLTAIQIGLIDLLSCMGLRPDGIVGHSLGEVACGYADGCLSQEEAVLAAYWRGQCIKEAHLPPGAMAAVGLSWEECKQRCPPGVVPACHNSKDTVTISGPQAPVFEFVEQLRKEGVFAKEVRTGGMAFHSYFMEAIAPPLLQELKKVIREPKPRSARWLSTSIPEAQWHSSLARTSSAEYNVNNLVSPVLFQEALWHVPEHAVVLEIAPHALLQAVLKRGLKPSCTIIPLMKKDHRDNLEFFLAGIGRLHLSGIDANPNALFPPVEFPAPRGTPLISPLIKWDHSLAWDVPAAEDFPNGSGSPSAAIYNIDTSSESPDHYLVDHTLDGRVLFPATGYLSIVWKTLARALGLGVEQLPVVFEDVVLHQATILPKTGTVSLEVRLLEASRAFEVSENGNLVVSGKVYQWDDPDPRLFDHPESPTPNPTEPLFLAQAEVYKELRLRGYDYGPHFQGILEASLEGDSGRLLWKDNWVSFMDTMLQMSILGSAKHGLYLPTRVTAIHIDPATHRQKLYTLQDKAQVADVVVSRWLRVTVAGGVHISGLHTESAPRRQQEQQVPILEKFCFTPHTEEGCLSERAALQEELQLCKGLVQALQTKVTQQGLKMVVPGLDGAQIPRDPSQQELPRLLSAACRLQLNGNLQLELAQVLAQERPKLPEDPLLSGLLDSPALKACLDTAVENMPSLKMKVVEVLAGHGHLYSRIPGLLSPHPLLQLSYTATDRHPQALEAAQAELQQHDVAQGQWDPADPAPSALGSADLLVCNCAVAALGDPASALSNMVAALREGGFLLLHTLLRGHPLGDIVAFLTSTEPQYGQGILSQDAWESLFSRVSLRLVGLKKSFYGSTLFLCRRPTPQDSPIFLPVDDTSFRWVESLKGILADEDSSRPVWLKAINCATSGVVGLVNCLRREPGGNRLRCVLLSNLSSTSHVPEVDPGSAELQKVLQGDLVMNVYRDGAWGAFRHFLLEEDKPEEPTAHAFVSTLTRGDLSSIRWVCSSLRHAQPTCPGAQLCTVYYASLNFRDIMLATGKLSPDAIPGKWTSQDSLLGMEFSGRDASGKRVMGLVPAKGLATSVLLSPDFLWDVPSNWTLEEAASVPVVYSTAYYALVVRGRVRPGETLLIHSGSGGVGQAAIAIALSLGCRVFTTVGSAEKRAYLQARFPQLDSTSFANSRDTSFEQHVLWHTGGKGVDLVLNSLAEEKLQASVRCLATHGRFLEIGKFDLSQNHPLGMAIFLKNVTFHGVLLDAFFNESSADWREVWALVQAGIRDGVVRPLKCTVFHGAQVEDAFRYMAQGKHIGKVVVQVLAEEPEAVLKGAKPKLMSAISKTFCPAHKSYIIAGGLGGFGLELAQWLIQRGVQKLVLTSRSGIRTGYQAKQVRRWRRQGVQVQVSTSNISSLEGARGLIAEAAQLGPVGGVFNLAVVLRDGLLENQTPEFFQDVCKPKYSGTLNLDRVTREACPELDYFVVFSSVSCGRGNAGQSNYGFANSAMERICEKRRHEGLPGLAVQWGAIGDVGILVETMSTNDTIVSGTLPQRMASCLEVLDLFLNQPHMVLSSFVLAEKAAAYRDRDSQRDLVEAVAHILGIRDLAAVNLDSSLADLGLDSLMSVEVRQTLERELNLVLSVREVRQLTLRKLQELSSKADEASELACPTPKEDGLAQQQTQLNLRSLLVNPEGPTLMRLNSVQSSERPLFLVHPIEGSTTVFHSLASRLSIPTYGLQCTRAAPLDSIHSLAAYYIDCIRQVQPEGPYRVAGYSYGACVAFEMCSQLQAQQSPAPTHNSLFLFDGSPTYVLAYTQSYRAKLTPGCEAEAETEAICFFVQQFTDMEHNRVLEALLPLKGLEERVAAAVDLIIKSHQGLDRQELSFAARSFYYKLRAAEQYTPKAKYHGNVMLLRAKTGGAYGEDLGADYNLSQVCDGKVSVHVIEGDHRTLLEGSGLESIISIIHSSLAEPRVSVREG

Row | Compound | pIC50
1 | Cc1nnc([C@H]2CC[C@@H](N(C)C(=O)c3ccc(-c4ccc(Cl)cc4)cc3)C2)o1 [Compound A16, 4′-chloro-biphenyl-4-carboxylic acid methyl-[(1R,3S)-3-(5-methyl-[1,3,4]oxadiazol-2-yl)-cyclopentyl]-amide] | > 6.52
2 | CC(C)c1nnc([C@H]2CC[C@@H](N(C)C(=O)c3ccc(-c4ccc(C#N)cc4)cc3)C2)o1 [Compound A10, 4′-cyano-biphenyl-4-carboxylic acid [(1R,3S)-3-(5-isopropyl-[1,3,4]oxadiazol-2-yl)-cyclopentyl]-methyl-amide] | > 6.52
3 | CCc1nnc([C@H]2CC[C@@H](N(C)C(=O)c3ccc(-c4ccncc4)cc3)C2)o1 [Compound A8, N-[(1R,3S)-3-(5-ethyl-[1,3,4]oxadiazol-2-yl)-cyclopentyl]-N-methyl-4-pyridin-4-yl-benzamide] | 5.52 to 6.52
4 | CCCc1nnc([C@H]2CC[C@@H](N(C)C(=O)c3ccc(-c4ccccc4)cc3)C2)o1 [Compound A2, biphenyl-4-carboxylic acid methyl-[(1R,3S)-3-(5-propyl-[1,3,4]oxadiazol-2-yl)-cyclopentyl]-amide] | > 6.52
5 | CCc1nnc([C@H]2CC[C@@H](N(C)C(=O)c3ccc(-c4ccc(C#N)cc4)cc3)C2)o1 [Compound A6, 4′-cyano-biphenyl-4-carboxylic acid [(1R,3S)-3-(5-ethyl-[1,3,4]oxadiazol-2-yl)-cyclopentyl]-methyl-amide] | > 6.52
6 | Cc1nnc([C@H]2CC[C@@H](N(C)C(=O)c3ccc(C#Cc4ccncc4)cc3)C2)o1 [Compound A22, N-methyl-N-[(1R,3S)-3-(5-methyl-[1,3,4]oxadiazol-2-yl)-cyclopentyl]-4-pyridin-4-ylethynyl-benzamide] | 5.52 to 6.52
7 | CC(C)c1nnc([C@H]2CC[C@@H](N(C)C(=O)c3ccc(-c4nc5ccccc5[nH]4)cc3)C2)o1 [Compound A11, 4-(1H-benzimidazol-2-yl)-N-[(1 R,3S)-3-(5-isopropyl-[1,3,4]oxadiazol-2-yl)-cyclopentyl]-N-methyl-benzamide] | > 6.52
8 | CC(C)c1nnc([C@H]2CC[C@@H](N(C)C(=O)c3ccc(-c4ccncc4)cc3)C2)o1 [Compound A12, N-[(1R,3S)-3-(5-isopropyl-[1,3,4]oxadiazol-2-yl)-cyclopentyl]-N-methyl-4-pyridin-4-yl-benzamide] | 5.52 to 6.52
9 | CN(C(=O)c1ccc(-c2ccccc2)cc1)[C@@H]1CC[C@H](n2cc(C3CC3)nn2)C1 (racemic) [Compound A29, (rac)-cis-biphenyl-4-carboxylic acid [-3-(4-cyclopropyl-[1,2,3]triazol-1-yl)-cyclopentyl]-methyl-amide] | 4.30 to 5.52
10 | CCCc1nnc([C@H]2CC[C@@H](N(C)C(=O)c3ccc(-c4ccc(C#N)cc4)cc3)C2)o1 [Compound A4, 4′-cyano-biphenyl-4-carboxylic acid methyl-[(1 R,3S)-3-(5-propyl-[1,3,4]oxadiazol-2-yl)-cyclopentyl]-amide] | > 6.52
11 | Cc1nnc([C@H]2CC[C@@H](N(C)C(=O)c3ccc(C#Cc4ccc(Cl)cc4)cc3)C2)o1 [Compound A21, 4-(4-chloro-phenylethynyl)-N-methyl-N-[(1 R,3S)-3-(5-methyl-[1,3,4]oxadiazol-2-yl)-cyclopentyl]-benzamide] | > 6.52
12 | CCCc1cn([C@H]2CC[C@@H](N(C)C(=O)c3ccc(-c4ccccc4)cc3)C2)nn1 (racemic) [Compound A30, (rac)-cis-biphenyl-4-carboxylic acid methyl-[3-(4-propyl-[1,2,3]triazol-1-yl)-cyclopentyl]-amide] | 4.30 to 5.52
13 | CCCc1nnc([C@H]2CC[C@@H](N(C)C(=O)c3ccc(C#Cc4ccc(F)cc4)cc3)C2)o1 [Compound A3, 4-(4-fluoro-phenylethynyl)-N-methyl-N-[(1 R,3S)-3-(5-propyl-[1,3,4]oxadiazol-2-yl)-cyclopentyl]-benzamide] | > 6.52
14 | Cc1nnc([C@H]2CC[C@@H](N(C)C(=O)c3ccc(-c4ccncc4)cc3)C2)o1 [Compound A15, N-methyl-N-[(1R,3S)-3-(5-methyl-[1,3,4]oxadiazol-2-yl)-cyclopentyl]-4-pyridin-4-yl-benzamide] | 5.52 to 6.52

Second part, the compound after the results:

Row | pIC50 | Compound
15 | > 6.52 | CC(C)c1nnc([C@H]2CC[C@@H](N(C)C(=O)c3ccc(-c4nc5ccccc5o4)cc3)C2)o1 [Compound A9, 4-benzoxazol-2-yl-N-[(1 R,3S)-3-(5-isopropyl-[1,3,4]oxadiazol-2-yl)-cyclopentyl]-N-methyl-benzamide]
16 | > 6.52 | Cc1nnc([C@H]2CC[C@@H](N(C)C(=O)c3ccc(-c4nc5ccccc5[nH]4)cc3)C2)o1 [Compound A17, 4-(1H-benzimidazol-2-yl)-N-methyl-N-[(1 R,3S)-3-(5-methyl-[1,3,4]oxadiazol-2-yl)-cyclopentyl]-benzamide]
17 | 5.52 to 6.52 | Cc1nnc([C@H]2CC[C@@H](N(C)C(=O)c3ccc(-c4nc5ccccc5o4)cn3)C2)o1 [Compound A23, 5-benzoxazol-2-yl-pyridine-2-carboxylic acid methyl-[(1R,3S)-3-(5-methyl-[1,3,4]oxadiazol-2-yl)-cyclopentyl]-amide]
18 | > 6.52 | Cc1nnc([C@H]2CC[C@@H](N(C)C(=O)c3ccc(-c4ccccc4)cc3)C2)o1 [Compound A24, biphenyl-4-carboxylic acid methyl-[(1R,3S)-3-(5-methyl-[1,3,4]oxadiazol-2-yl)-cyclopentyl]-amide]
19 | > 6.52 | CCCc1nnc([C@H]2CC[C@@H](N(C)C(=O)c3ccc(-c4nc5ccccc5o4)cc3)C2)o1 [Compound A1, 4-benzoxazol-2-yl-N-methyl-N-[(1 R,3S)-3-(5-propyl-[1,3,4]oxadiazol-2-yl)-cyclopentyl]-benzamide]
20 | > 6.52 | Cc1cnc([C@H]2CC[C@@H](N(C)C(=O)c3ccc(-c4nc5ccccc5o4)cc3)C2)o1 [Compound A26, 4-benzoxazol-2-yl-N-methyl-N-[(1 R,3S)-3-(5-methyl-oxazol-2-yl)-cyclopentyl]-benzamide]
21 | 5.52 to 6.52 | Cc1coc([C@H]2CC[C@@H](N(C)C(=O)c3ccc(-c4nc5ccccc5o4)cc3)C2)n1 [Compound A27, 4-benzoxazol-2-yl-N-methyl-N-[(1 R,3S)-3-(4-methyl-oxazol-2-yl)-cyclopentyl]-benzamide]
22 | > 6.52 | CCc1nnc([C@H]2CC[C@@H](N(C)C(=O)c3ccc(-c4nc5ccccc5o4)cc3)C2)o1 [Compound A5, 4-benzoxazol-2-yl-N-[(1 R,3S)-3-(5-ethyl-[1,3,4]oxadiazol-2-yl)-cyclopentyl]-N-methyl-benzamide]
23 | > 6.52 | Cc1nnc([C@H]2CC[C@@H](N(C)C(=O)c3ccc(-c4nc5ccccc5o4)cc3)C2)o1 [Compound A13, 4-benzoxazol-2-yl-N-methyl-N-[(1 R,3S)-3-(5-methyl-[1,3,4]oxadiazol-2-yl)-cyclopentyl]-benzamide]
24 | > 6.52 | COc1cc(C(=O)N(C)[C@@H]2CC[C@H](c3nnc(C)o3)C2)ccc1-c1nc2ccccc2o1 [Compound A18, 4-benzoxazol-2-yl-3-methoxy-N-methyl-N-[(1 R,3S)-3-(5-methyl-[1,3,4]oxadiazol-2-yl)-cyclopentyl]-benzamide]
25 | > 6.52 | Cc1nnc([C@H]2CC[C@@H](N(C)C(=O)c3ccc(-c4nc5ccccc5s4)cc3)C2)o1 [Compound A14, 4-benzothiazol-2-yl-N-methyl-N-[(1 R,3S)-3-(5-methyl-[1,3,4]oxadiazol-2-yl)-cyclopentyl]-benzamide]
